Data set [1] relates to Leishmania infantum. Put plainly: Antileishmanial activity against amastigote stage of Leishmania infantum. The data set is classed as functional, organism-based.
Data set [2] deals with Trypanosoma cruzi. Put plainly: Antitrypanosomal activity against amastigote stage of Trypanosoma cruzi Tulahuen C2C4. The class given is functional, organism-based. The following applies: Tulahaen C2C4.
Data set [3] concerns Plasmodium falciparum. Put plainly: Antimalarial activity against erythrocytic stage of chloroquine-resistant Plasmodium falciparum Dd2. The data set is classed as functional, organism-based.
In data set [4] the test system is L6. Description: Cytotoxicity against rat L6 cells. The class given is cell-based.
The subject of data set [5] is Trypanosoma brucei rhodesiense. Description: Antitrypanosomal activity against bloodstream form of Trypanosoma brucei rhodesiense STIB 900. The data set is classed as functional, organism-based.
The subject of data set [6] is Plasmodium falciparum. Put plainly: Antimalarial activity against erythrocytic stage of Plasmodium falciparum 3D7. The class given is functional, organism-based.
Data set [7] in a line: Cytotoxicity against human HEK cells at 29 uM. The class given is cell-based. The following applies: hek293, 29 µM.
For data set [8], the system named is Plasmodium falciparum. Description: Antimalarial activity against erythrocytic stage of chloroquine-resistant Plasmodium falciparum Dd2 at 115 uM. The data set is classed as functional.
In data set [9] the test system is Plasmodium falciparum. Description: Antimalarial activity against erythrocytic stage of Plasmodium falciparum 3D7 at 115 uM. The class given is functional, organism-based.
A short description of data set [10]: Cytotoxicity against human HEK cells at 115 uM. The class given is cell-based. The following applies: hek293, 115 µM.
A short description of data set [11]: Cytotoxicity against human HEK cells at 38 uM. The data set is classed as cell-based. The settings on record: hek293, 38 µM.
For data set [12], the system named is Plasmodium falciparum. Description: Antimalarial activity against erythrocytic stage of Plasmodium falciparum 3D7 at 38 uM. The data set is classed as functional, organism-based.
A short description of data set [13]: Cytotoxicity against human HEK cells. The class given is cell-based. The following applies: HEK293.
[14] abbreviates: Plasmodium falciparum, Dd2, read-out: EC50.

What is called EC50 is the concentration giving half of the maximal effect. Usually IC50 stands for the concentration that inhibits the measured activity by half. A higher IC50 goes with weaker potency in that assay.

Several values for one entry are separate records, joined by “and”; a condition that tells them apart may be missing. Identical values can stand only once.

On to `Clc1ccc(Nc2nnc(NCc3ccccc3)nn2)cc1`, for which the EC50 in [1] is 16 µM; in data set [2], 15 µM; in data set [3] (setting [14]), 1.1 µM; in data set [5], more than 32 µM; in data set [6], 0.44 µM and 1.1 µM. Besides, the IC50 in [4] was more than 32 µM. Further, the Activity in data set [7] turned out to be 58%.

On to `Clc1ccc(Nc2nnc(NCCc3ccccc3)nn2)cc1`, for which the Activity in data set [8] is 88%; in data set [9], 85%; in data set [10], “Non-toxic”.

On to `CC(Nc1nnc(Nc2ccc(Cl)cc2)nn1)c1ccccc1` (configuration not stated), for which the Activity entry in [11] is listed as “Non-toxic”. Besides, the EC50 entry in data set [12] was “Not Active”.

Take `CNc1nnc(NCc2ccccc2)nn1`: the EC50 entry in data set [9] is “Not Active”. The Activity result in data set [10] is “Non-toxic”.

For the molecule `CCCCNc1nnc(NCc2ccccc2)nn1`, the EC50 result in data set [9] is listed as “Not Active”. The Activity result in [10] is “Non-toxic”.

As to `c1ccc(CNc2nnc(Nc3ccccc3)nn2)cc1`, the EC50 entry in [9] is “Not Active”. The Activity entry in data set [10] was “Non-toxic”.

For the molecule `CN(c1ccc(Cl)cc1)c1nnc(NCc2ccccc2)nn1`, the EC50 in [3] (setting [14]) came out at 3.5 µM; in data set [6] (Plasmodium falciparum, 3D7), 2.4 µM. Further, the concentration for half-maximal inhibition (IC50) in data set [13] came out at 12 µM.

As for `CN(C)CCN(c1ccc(Cl)cc1)c1nnc(NCc2ccccc2)nn1`, the EC50 turned out to be 20 µM in [3] (setting [14]) and 13 µM in data set [6] (Plasmodium falciparum, 3D7). This molecule had an IC50 in data set [13] of 38 µM.

For the molecule `CN(C)CCN(Cc1ccccc1)c1nnc(N(CCN(C)C)c2ccc(Cl)cc2)nn1`, the EC50 result in [9] is listed as “Not Active”. The Activity result in [10] was “Non-toxic”.

For the molecule `CN(C)CCOc1cccc(Nc2nnc(NCc3ccccc3)nn2)c1`, the Activity in [11] amounted to 52%. Moreover, the EC50 came out at 13 µM in data set [3] (setting [14]) and 15 µM in data set [6] (Plasmodium falciparum, 3D7).

Turning to `CN(C)CCOc1cccc(CNc2nnc(Nc3ccc(Cl)cc3)nn2)c1`, the EC50 in data set [3] amounted to 6 µM; in data set [6] (Plasmodium falciparum, 3D7), 5 µM. Also, inhibition in data set [13] was half-maximal at 21 µM (IC50).

For the molecule `COc1nncc(-c2cnnc(SC)n2)n1`, the concentration for a half-maximal effect (EC50) was found to be 8.6 µM in data set [1]; 16 µM in data set [2]; 5.7 µM in data set [5]; 0.18 µM in [6] (Plasmodium falciparum, 3D7). The IC50 in [4] was 33 µM.

Values taken from ChEMBL document CHEMBL1208717, “Antimalarial 3-arylamino-6-benzylamino-1,2,4,5-tetrazines” (Bioorg Med Chem Lett, 2010).
